{"source": "patent US20250360113A1", "about": "“ADMINISTRATION OF DHB TO INCREASE BENEFIT OF LOSING WEIGHT OF INTERMITTENT FASTING” (NANJING NUTRABUILDING BIO-TECH CO., LTD., priority 2023, published 2025)", "test": "Body weight and body composition of HFD obese mice given DHB with or without EODF", "type": "in vivo, C57BL/6 male mice", "experimental": "50 C57BL/6 male mice aged about 8 weeks, are randomly assigned to five study groups (GA, GB1, GB2, GB3, GB4) of ten mice each (one cage, n=5 per condition). Mice were maintained in a pathogen free condition under a strict 12 h light/dark cycle (0600/1800 h) with 12-15 cycles/hour of air change. Mice were provided with access to respective feed and water ad libitum as per experimental conditions. Mice were housed under controlled laboratory conditions of temperature and humidity at 23±2° C. and 50±10% RH, respectively.\nEach study group consisted of ten animals, and treatment details of the individual study groups are given below: • Group A (GA, NC): Normal mice, maintained on normal diet (standard chow, 12% calories from fat; 23% calories from protein and 65% calories from carbohydrates) for 8 weeks, receiving neither EODF nor DHB treatment. • Group B1 (GB1): Obese mice, maintained on high fat diet (HFD, 60% calories from fat, 20% calories from protein, 20% calories from carbohydrate) for 8 weeks, receiving neither EODF nor DHB treatment. • Group B2 (GB2): Obese mice, maintained on HFD for 8 weeks, receiving only EODF and no DHB treatment. • Group B3 (GB3): Obese mice, maintained on HFD for 8 weeks, receiving only DHB treatment and no EODF. • Group B4 (GB4): Obese mice, maintained on HFD for 8 weeks, receiving DHB treatment and EODF combination.\nThe total experimental time is 19 weeks, including two periods: an elevent-week induction period and a subsequent eight-week treatment period.\nHFD fed male mice in groups at 8 weeks of age were randomly assigned into either ad libitum, or EODF groups on a per cage basis. All cage bedding was changed to paper bedding for the duration of the model. Mice in the EODF group had total deprivation of food and ad libitum access to water from 1200 h-1200 h on alternate days with ad libitum food and water access. EODF cages were changed upon induction of fasting. Ad libitum control mice cages were changed every other day with fresh food provided.\nDHB was administered daily via intragastric injection (i.g.) according to a level of 70 mg/kg body weight. Mice not receiving DHB were given orally with ultrapure water.\nEach mouse's body weight is measured weekly during the study at 1200 h. Each animal's body composition was measured and recorded before the treatment and weekly during the study at 1200 h by Nuclear Magnetic Resonance Body Composition Analyzer in accordance with manufacturer's instruction. After sacrifice, subcutaneous fat and para-renal fat were weighed.", "key": {"[1]": {"settings": "DHB 70 mg/kg i.g. daily + EODF combination vs EODF only"}}, "note": "“Also recorded” adds a separate entry of the source.", "data": [{"smiles": "COc1ccc2c(c1OC)CN1CCc3cc4c(cc3C1=C2)OCO4", "note": "[DHB, Dihydroberberine]", "values": [{"measurement": "body fat", "setting": "[1]", "value": "reducing"}, {"measurement": "body weight", "setting": "[1]", "value": "reducing; also recorded: greater effects on weight loss"}, {"measurement": "para-renal fat", "setting": "[1]", "value": "reducing"}, {"measurement": "subcutaneous fat", "setting": "[1]", "value": "reducing"}, {"measurement": "body composition", "setting": "DHB 70 mg/kg i.g. daily, 8 weeks, with or without EODF, vs same HFD with and without EODF, no DHB, FIGS. 1-4", "value": "greater reduction in body composition"}]}]}
